From patent publication US8846096B2, “Nanoparticles and methods of use” (Creighton University, priority 2008, dated 2014)

Key:
[1] = Nanoparticle characterization (size, zeta potential, drug loading, entrapment efficiency); format: physicochemical; conditions: per drug, HPLC
Description: Briefly, in a typical procedure, a solution of ethylene oxide/propylene oxide block copolymer (Poloxamer-127; 2% [w/v] in double distilled water (ddH2O 10 mL); BASF, Mt. Olive, N.J.) was homogenized with ART drug powder (1 mg of each) in poly-lactic-co-glycolic acid) (PLGA) polymer (molecular weight 110,000-139,000 Daltons (100 mg) in 10 mL methylene chloride) using a probe sonicator (21W for 6 min) (Sonicator XL, Misonix, Farmingdale, N.Y.). The water-in-oil emulsion thus formed was further emulsified into 30 mL of 0.25% (w/v) aqueous solution of polyvinyl alcohol (PVA) as an emulsifier by using sonication as described above for 5 minutes to fowl multiple water-in-oil-in-water emulsion. […] Additionally, 6-hydroxycoumarin (a fluorescent dye; 1% w/v) was added to the polymer solution and one milligram of each ART were fabricated to make fluorescent nanoparticles for flow cytometry. In all formulation procedures, the emulsion was stirred for approximately 18 hours at room temperature to evaporate the organic solvent, methylene chloride, followed by ultracentrifugation (15,000 G for 45 minutes at 4° C., Optima LE-80K, Beckman, Palo Alto, Calif.), rinsed twice with ddH2O to remove PVA, and unentrapped drugs, and then lyophilized (Labconco, Freezone 4.5 at −52° C. and 5.62 torr) for 24 hours to obtain a dry powder.
Nanoparticle characterization: Nanoparticles were evaluated for size by […] as well as scanning electron microscopy (SEM) and surface charge by using a zeta potential analyzer (ZetaPlus, Brookhaven Instruments, Holtsville, N.Y.). For SEM, a sample of nanoparticles was suspended in water (0.2 mg/ml) and an aliquot of suspended particles were placed onto a tip and sputter coated with 2% w/v uranyl acetate, dried, and then visualized by using a JEOL-40A (JEOL Ltd, Sheboygan, Wis.) scanning electron microscope. Additionally, one milligram of formed particles was dissolved in one milliliter methylene chloride in glass tubes and evaporated overnight in quadruplicate. High pressure liquid chromatography (HPLC) mobile phase (200 μL) reconstituted the tubes. The tubes were centrifuged (11,000 rpm, 10 minutes, 4° C.) and aliquots were injected into the HPLC equipment to determine ART drug loading and entrapment efficiency.
Standards were analyzed in triplicate and averaged.

[2] = system: PBMCs; assay: ART release from nanoparticles / free drug: intracellular drug levels in PBMCs by HPLC
Description: High pressure liquid chromatography (HPLC): HPLC was performed using a previously reported method (Weller et al., J. Chromatogr. B Analyt. Technol. Biomed. Life Sci., 2007, 848(2):369-73). Briefly, the equipment included a pump (LC-10ATvp), system controller (SIL-10ADvp); degasser unit (DGU-14A), refrigerated auto-sampler (SIL-10ADvp); and a UV-Vis detector (SPD-10ADvp) and a column heater (set at 35° C.) (all from Shimadzu Corporation, Columbia, Md.). Samples were run through a C18 pre-column and a Jupiter C18 reverse-phase [150×3.9 mm (I.D.)] with […] particle size packing (Phenomenex, Torrance, Calif.). The mobile phase was 25 mM KHPO4 (pH 4.9) and acetonitrile (40:60). The mobile phase was filtered and degassed prior to use. Flow rate was set at 0.9 mL/min and the detector was set at 212 nm. […] Peak area from the samples and standards were integrated using EZ-Start chromatography software (Shimadzu) on a Dell computer. Injection volume was 20 μL and all samples were analyzed in duplicate and averaged. Standards were analyzed in triplicate and averaged.
Human monocyte isolation and cultivation: Human PBMCs were obtained from whole blood collection of HIV-1, -2 and hepatitis B seronegative donor and purified using CPT Vacutainer tubes (BD and Co., Sparks, Md.) according to the manufacturer instructions. […] (1×10^6 cells/mL) were cultured in DMEM supplemented with 10% heat-inactivated pooled human serum, 1% glutamine, 1% penicillin-streptomycin, and 10 µg/mL ciprofloxacin (Sigma Chemical Co) then filter sterilized. The PBMCs were used within 2 hours after blood collection. Media was one-half exchanged with fresh media every 2-3 days. These cells were used for ART drug release experiments from nanoparticles as determined by HPLC. Human PBMCs at 5×10^6 were cultured in DMEM supplemented with 10% heat-inactivated pooled human serum, 1% glutamine, 1% penicillin-streptomycin, and 10 µg/mL ciprofloxacin (Sigma Chemical Co), and 1000 U/mL highly purified recombinant human macrophage colony stimulating factor (MCSF; R&D Systems, Inc; Minneapolis, Minn.) for seven days. Media was one-half exchanged very 2-3 days. Monocyte-derived macrophages (MDM) were used for TEM and fluorescent imaging.
ART Release from Nanoparticles: Antiretroviral nanoparticles (100 μg) were added to PBMC cell cultures. Flasks containing PBMCs and ART nanoparticles were placed in a 37° C., 5% CO2 incubator. At the appointed time, media in the flask was placed in a sterile 15 mL conical tube and centrifuged (400×G, 24° C. for 10 minutes). Cells (250 μL) were removed from the tube and put into a microfuge tube for HPLC analysis. […] Cell samples were placed in microfuge tubes, 250 μL of 100% methanol was added to lyse the cells then the cells were frozen (−20° C.) until assayed for ART drugs using HPLC. When HPLC was performed, microfuge tubes were thawed, centrifuged at 15,000 rpm at 4 C for 10 minutes and an aliquot of supernatant was placed into autosampler vials with glass insert. Free drugs (25 μg/mL of each ART drug) was dissolved in HPLC-grade ethanol, incubated with the PBMCs and cells were removed at 2, 4, 8, 24, and 48 hours, lysed with methanol, centrifuged, and assayed by HPLC as controls of these experiments.

[3] = in vivo; conditions: for MRT: MRT (mean residence time within the serum)
Description: (§1) The particles were weighed, reconstituted with PBS and 500 μg was injected intraperitoneally (IP) into male BALB/c mice. At specific times, (free: 0.08, 0.167, 0.25, 0.33, 1, 2 and 3 days; antiretroviral nanoparticles: 0.167, 0.33, 1, 2, 4, 7, 14, 21, 28, and 35 days) mice (n=3/time point) were euthanized and selected organs and serum were harvested for antiretroviral drug levels. Results are presented as mean±SEM.
(§2) The nanoparticle powder was weighed and 500 μg was dissolved in phosphate-buffered saline (PBS) and injected intraperitoneally into each BALB/c male mice (25-28 g). […] At specified times points, mice (n=3-4) were euthanized using a CO2 chamber and organs (spleen, liver, kidney, brain, testes) and blood (100-150 μL) were removed from each of the mice. Blood was allowed to clot, centrifuged (1000×G) and serum was harvested. The organs were harvested and immediately placed on ice. At weekly intervals, an aliquot of the organ tissue was weighed and 500 μL of 100% methanol was added to tissue and serum samples. The tissue was homogenized using a pellet homogenizer, equilibrated at 4° C. for 30 minutes, and then centrifuged (11,400 RPM×15 minutes at 4° C.). An aliquot of the supernatant (20 μL/injection) was added to autosampler vials with glass inserts. […] Duplicate samples from tissues and serum were assayed and standards were assayed in triplicate. The organ/serum samples were compared to the standard curve (45-1000 ng/ml) that was performed on that day using peak area and EZ-Chrom software (Shimadzu, Corp.).
Data is presented as mean±SEM where appropriate. Serum concentration-time curves were used to determine pharmacokinetic parameters. Elimination rate constant was determined using nonlinear regression of the terminal phase of the serum concentration-time curve. Apparent volume of distribution, total body clearance, mean residence time and area under the serum concentration-time curve to the last concentration obtained (AUC0-last) were determined by non-compartmental modeling.

[4] = Drug levels in organs and serum of mice after a single intraperitoneal dose; conditions: male, BALB/c, mouse, liver, ip, 500 μg
Description: as §1
as §2, with “The organ/serum samples were compared to the standard curve (45-1000 ng/ml) that was performed on that day using peak area and EZ-Chrom software (Shimadzu, Corp.).” left out

[5] = male, BALB/c, mouse, in vivo, ip, 500 ug
[6] = male, BALB/c, mouse, in vivo, ip, 500 ug, Elimination half-life, drug given as PLGA nanoparticles, averaging
[7] = male, BALB/c, mouse, in vivo, ip, 500 ug, Free ART
[8] = male, BALB/c, mouse, in vivo, ip, 500 ug, NP ART
[9] = male, BALB/c, mouse, in vivo, ip, 500 ug, T1/2 (elimination half-life), Free ART
[10] = male, BALB/c, mouse, in vivo, ip, 500 ug, T1/2 (elimination half-life), NP ART
[11] = PLGA NPs 500 μg IP, mice, listed as E

CC(C)c1nc(CN(C)C(=O)N[C@H](C(=O)N[C@@H](Cc2ccccc2)C[C@H](O)[C@H](Cc2ccccc2)NC(=O)OCc2cncs2)C(C)C)cs1 [RTV, ritonavir]
Antiretroviral drug loading of the nanoparticles [1]: 4.9%
Time of intracellular peak concentration, free drug ([2]; human, 25 μg/mL): 8 h
Time to elimination of free drug from PBMCs ([2]; human, 25 μg/mL): ≤ 48 h
Intracellular peak level, drug given as nanoparticles ([2]; human, 100 μg): 2.5+1.1 μg
Time of intracellular peak concentration, drug given as nanoparticles ([2]; human, 100 μg): 96 h
Time of intracellular peak level, drug given as nanoparticles ([2]; human, 100 μg): 4 days
Vd (volume of distribution), Free ART [3, 5]: 9.7 ± 4.4 L/kg
Vd (volume of distribution), NP ART [3, 5]: 549.9 ± 360 L/kg
half-life [3, 6]: > 101000 min
MRT [3, 7]: 4.8 h
MRT [3, 8]: 775 h
half-life [3, 9]: 576 ± 168 min
half-life [3, 10]: 330000 min
AUC (area under the serum concentration-time curve), NP ART ([3]; mouse, in vivo, ip, 500 ug): R: 7020.5 ± 11428.7 ng-day/ml

Cc1cccc(C)c1OCC(=O)N[C@@H](Cc1ccccc1)[C@@H](O)C[C@H](Cc1ccccc1)NC(=O)[C@H](C(C)C)N1CCCNC1=O [LPV, lopinavir]
Antiretroviral drug loading of the nanoparticles [1]: 5.2%
Time of intracellular peak concentration, free drug ([2]; human, 25 μg/mL): 8 h
Time to elimination of free drug from PBMCs ([2]; human, 25 μg/mL): ≤ 48 h
Intracellular peak level, drug given as nanoparticles ([2]; human, 100 μg): 4.1+2.0 μg
Time of intracellular peak concentration, drug given as nanoparticles ([2]; human, 100 μg): 96 h
Time of intracellular peak level, drug given as nanoparticles ([2]; human, 100 μg): 4 days
Vd (volume of distribution), Free ART [3, 5]: 41.6 ± 31.7 L/kg
Vd (volume of distribution), NP ART [3, 5]: 118.6 ± 165.9 L/kg
half-life [3, 6]: > 101000 min
MRT [3, 7]: 14.4 h
MRT [3, 8]: 5490 h
half-life [3, 9]: 906 ± 384 min
half-life [3, 10]: 38700 min
AUC (area under the serum concentration-time curve), NP ART ([3]; mouse, in vivo, ip, 500 ug): L: 3329.8 ± 1785.3 ng-day/ml

O=C1Nc2ccc(Cl)cc2[C@@](C#CC2CC2)(C(F)(F)F)O1 [EFV, efavirenz]
Antiretroviral drug loading of the nanoparticles [1]: 10.8%
Entrapment efficiency [1]: 86%
Intracellular peak level, drug given as nanoparticles ([2]; PLGA NPs (100 μg) incubated with PBMCs): 10.6+2.7 μg
Time of intracellular peak concentration, drug given as nanoparticles ([2]; PLGA NPs incubated with PBMCs): 24 h
Time of intracellular peak level, drug given as nanoparticles ([2]; PLGA NPs incubated with PBMCs (summary of Example 1)): 4 days
Intracellular peak concentration, free drug ([2]; free drug 25 μg/mL in ethanol, PBMCs, at 8 hours): 3.1+0.02 μg
Time of intracellular peak concentration, free drug ([2]; free drug, PBMCs): 8 h
Time to elimination of free drug from PBMCs ([2]; human, 25 μg/mL): ≤ 48 h
concentration at 28 day [4]: 1020 ± 440 ng/g
Peak serum level, drug given as PLGA nanoparticles ([3]; PLGA NPs 500 μg IP single dose, mice): 853.2 ± 64.1 ng/mL
AUC (area under the serum concentration-time curve), NP ART ([3]; PLGA NPs 500 μg IP, mice): E: 5716.9 ± 3177.7 ng-day/ml
ClT (total body clearance), NPs ([3]; PLGA NPs 500 μg IP, mice): 4.1 ± 3.06 L/day/kg
Time of peak serum level, drug given as PLGA nanoparticles ([3]; PLGA NPs 500 μg IP, mice): 0.25 h
Vd (volume of distribution), NP ART ([3]; PLGA NPs 500 μg IP, mice): 11.38 ± 10.72 L/kg
MRT (mean residence time within the serum), NP ART [3, 11]: E: 10.3 ± 4.24 days
Vd (volume of distribution), NP ART [3, 11]: E: 11.4 ± 10.7 L/kg
Peak serum level, free drug ([3]; free drugs 500 μg IP single dose, mice, 4 hours post-injection): 3.5 ± 1.9 µg/L
AUC (area under the serum concentration-time curve, AUC0-last), Free ART ([3]; free drugs 500 μg IP, mice): 646 ± 640 ng·days/mL
Time of peak serum level, free drug ([3]; free drugs 500 μg IP, mice): 4 h
Vd (volume of distribution), Free ART ([3]; free drugs 500 μg IP, mice): 39.3 ± 26.6 L/kg
T1/2 (elimination half-life), Free ART ([3]; free drugs 500 μg IP, mice, serum, listed as E): E: 11.76 ± 2.8 hrs
AUC (area under the serum concentration-time curve, AUC0-last), Free ART [3, 5]: E: 645. 9 ± 640.2 ng-day/ml
MRT ([3]; male, BALB/c, mouse, serum, ip, 500 ug, Free ART, free drugs 500 μg IP, mice): 13.7 h
MRT ([3]; male, BALB/c, mouse, serum, ip, 500 ug, NP ART, PLGA NPs 500 μg IP, mice): 248 h
half-life ([3]; male, BALB/c, mouse, serum, ip, 500 ug, T1/2 (elimination half-life), Free ART, free drugs 500 μg IP, mice): 708 ± 168 min
half-life ([3]; male, BALB/c, mouse, serum, ip, 500 ug, T1/2 (elimination half-life), NP ART, PLGA NPs 500 μg IP, mice): 2130 min
